# From PMC10247784, “Physiological activation of human and mouse bitter taste receptors by bile acids” (Communications Biology, 2023)
# System: HEK293T-Gα16gust44 cells transfected with empty vector (mock)
# Experiment: Calcium imaging assay (FLIPR), empty vector control (mock)
# Assay type: cell-based
# Experimental: This set of bile acids was chosen because of their commercial availability in high purities, their diversity within the class of bile acids and their previous detection and quantitation in human blood. Stock solutions were prepared in DMSO.
# As basal growth medium for the HEK293T-Gα16gust44 cell line[17],[59] served Dulbecco’s modified eagle medium (DMEM) (Thermo Fisher Scientific, Darmstadt, Germany) supplemented with 10 % fetal bovine serum (Sigma-Aldrich, Steinheim, Germany), 2 mM L-glutamine (Sigma-Aldrich, Steinheim, Germany), 100 units/ml penicillin (Sigma Aldrich, Steinheim, Germany) and 100 µg/ml streptomycin (Sigma Aldrich, Steinheim, Germany). Growth conditions were 37 °C, 5 % CO2 and saturated air-humidity[60].
# HEK293T-Gα16gust44 cells were seeded on poly-D-lysine (10 µg/ml) coated 96-well plates to reach a confluence of 40-60 % the next day. For transient transfection 150 ng of plasmid DNA containing the receptor of interest and 0.3 µl lipofectamine 2000 (Thermo Fisher Scientific, Darmstadt, Germany) per well were used and transfection took place according to the manual of lipofectamine 2000. […] The empty vector DNA (mock) was transfected as negative control[14],[41].
# Cells were loaded using the calcium-sensitive fluorescent dye Fluo-4-AM (Abcam, Cambridge, Great Britain) in the presence of 2.5 mM probenecid (Sigma-Aldrich, Steinheim, Germany) the day after transfection[13],[41]. 1 h after loading, cells were washed with C1 buffer using a BioTek Cell Washer, incubated in the dark for half an hour and washed again. For automated agonist application and measurement of fluorescence changes, a FLIPR^TETRA device (Molecular Devices, San José, United States) was used. Viability of cells was tested by application of 100 nM Somatostatin 14 (Bachem, Bubendorf, Switzerland)[42].
# Measured data were negative control corrected by subtracting the signal of the mock-transfected cells and exported to Microsoft Excel using the FLIPR software ScreenWorks 4.2. In Microsoft Excel software, standardization of maximum fluorescence intensities to the basal fluorescence and normalization to the buffer-only control was done to calculate the relative fluorescence changes (ΔF/F).
# Initial screening experiments performed in duplicate wells were confirmed by at least one replication and representative traces were selected for display. All dose-response relationships were determined by three independent experiments (biological replicates) performed in duplicates (technical replicates). Threshold concentrations, defined as lowest substance concentrations leading to statistically significant elevated fluorescence changes in receptor-transfected cells compared with empty vector-transfected cells, were determined using SigmaPlot with Student’s t-test to evaluate statistical significance (p < 0.01).
smiles,measurement,setting,value
"C[C@H](CCC(=O)NCCS(=O)(=O)O)[C@H]1CC[C@H]2[C@@H]3[C@H](O)C[C@@H]4C[C@H](O)CC[C@]4(C)[C@H]3C[C@H](O)[C@]12C [Taurocholic Acid, taurocholic acid]",Δ F/F,"Conc. 0,01 mM, Mock (sheet TAS2R39)",-0.01563
same,Δ F/F,"Conc. 0,1 mM, Mock (sheet TAS2R39)",-0.02822
same,Δ F/F,"Conc. 0,03 mM, Mock (sheet TAS2R39)",-0.0235
same,Δ F/F,"Conc. 0,3 mM, Mock (sheet TAS2R39)",-0.04268
same,Δ F/F,"Conc. 0,001 mM, Mock (sheet TAS2R39)",-0.0133
same,Δ F/F,"Conc. 1 mM, Mock (sheet TAS2R39)",-0.07998
same,Δ F/F,"Conc. 0,003 mM, Mock (sheet TAS2R39)",-0.01654
same,Δ F/F,"Mock (sheet Tas2r123), conc. 0,01 mM",-0.001211
same,Δ F/F,"Mock (sheet Tas2r123), conc. 0,1 mM",-8.418e-5
same,Δ F/F,"Mock (sheet Tas2r123), conc. 0,03 mM",-0.0003225
same,Δ F/F,"Mock (sheet Tas2r123), conc. 0,3 mM",-0.001149
same,Δ F/F,"Mock (sheet Tas2r123), conc. 0,001 mM",-0.001993
same,Δ F/F,"Mock (sheet Tas2r123), conc. 0,003 mM",-0.001321
same,Δ F/F,"Mock (sheet Tas2r144), conc. 0,01 mM",0.001108
same,Δ F/F,"Mock (sheet Tas2r144), conc. 0,1 mM",0.003486
same,Δ F/F,"Mock (sheet Tas2r144), conc. 0,03 mM",0.0001367
same,Δ F/F,"Mock (sheet Tas2r144), conc. 0,3 mM",-0.000351
same,Δ F/F,"Mock (sheet Tas2r144), conc. 0,003 mM",-0.001298
same,Δ F/F,"Mock, sheet TAS2R4, conc. 0,01 mM",-0.0002235
same,Δ F/F,"Mock, sheet TAS2R4, conc. 0,1 mM",-0.0008729
same,Δ F/F,"Mock, sheet TAS2R4, conc. 0,03 mM",6.044e-5
same,Δ F/F,"Mock, sheet TAS2R4, conc. 0,3 mM",0.0004439
same,Δ F/F,"Mock, sheet TAS2R4, conc. 0,001 mM",-0.0007938
same,Δ F/F,"Mock, sheet TAS2R4, conc. 0,003 mM",-0.0007144
same,Δ F/F,"Mock, sheet TAS2R14, conc. 0,01 mM",-0.01747
same,Δ F/F,"Mock, sheet TAS2R14, conc. 0,1 mM",-0.02159
same,Δ F/F,"Mock, sheet TAS2R14, conc. 0,03 mM",-0.01682
same,Δ F/F,"Mock, sheet TAS2R14, conc. 0,3 mM",-0.04976
same,Δ F/F,"Mock, sheet TAS2R14, conc. 0,001 mM",-0.01145
same,Δ F/F,"Mock, sheet TAS2R14, conc. 1 mM",-0.08511
same,Δ F/F,"Mock, sheet TAS2R14, conc. 0,003 mM",-0.01455
same,Δ F/F,"Mock, sheet TAS2R46, conc. 0,01 mM",-0.0238
same,Δ F/F,"Mock, sheet TAS2R46, conc. 0,1 mM",-0.03213
same,Δ F/F,"Mock, sheet TAS2R46, conc. 0,03 mM",-0.02754
same,Δ F/F,"Mock, sheet TAS2R46, conc. 0,3 mM",-0.04297
same,Δ F/F,"Mock, sheet TAS2R46, conc. 0,001 mM",-0.01362
same,Δ F/F,"Mock, sheet TAS2R46, conc. 1 mM",-0.07821
same,Δ F/F,"Mock, sheet TAS2R46, conc. 0,003 mM",-0.02261
same,Δ F/F,"Mock, sheet Tas2r108, conc. 0,01 mM",-0.02048
same,Δ F/F,"Mock, sheet Tas2r108, conc. 0,1 mM",-0.02439
same,Δ F/F,"Mock, sheet Tas2r108, conc. 0,03 mM",-0.01669
same,Δ F/F,"Mock, sheet Tas2r108, conc. 0,3 mM",-0.04405
same,Δ F/F,"Mock, sheet Tas2r108, conc. 0,001 mM",-0.01481
same,Δ F/F,"Mock, sheet Tas2r108, conc. 1 mM",-0.07176
same,Δ F/F,"Mock, sheet Tas2r108, conc. 0,003 mM",-0.01975
same,Δ F/F,"Mock, sheet Tas2r117, conc. 0,01 mM",0.0004005
same,Δ F/F,"Mock, sheet Tas2r117, conc. 0,1 mM",0.0008049
same,Δ F/F,"Mock, sheet Tas2r117, conc. 0,03 mM",0.000104
same,Δ F/F,"Mock, sheet Tas2r117, conc. 0,3 mM",-0.0008737
same,Δ F/F,"Mock, sheet Tas2r117, conc. 0,0003 mM",-0.0001935
same,Δ F/F,"Mock, sheet Tas2r117, conc. 0,001 mM",-0.001035
same,Δ F/F,"Mock, sheet Tas2r117, conc. 0,003 mM",-0.0005321
same,Δ F/F,"conc. 0,01 mM, Mock (sheet TAS2R1)",-0.002439
same,Δ F/F,"conc. 0,1 mM, Mock (sheet TAS2R1)",-0.002601
same,Δ F/F,"conc. 0,03 mM, Mock (sheet TAS2R1)",-0.002464
same,Δ F/F,"conc. 0,3 mM, Mock (sheet TAS2R1)",-0.001298
same,Δ F/F,"conc. 0,001 mM, Mock (sheet TAS2R1)",-0.001546
same,Δ F/F,"conc. 0,003 mM, Mock (sheet TAS2R1)",-0.002596
